Measurements from patent US6608082B1, “Treatment of erectile dysfunction using isoquinoline compound melanocortin receptor ligands” (Lion Bioscience AG, priority 1998, dated 2003).
Read-outs that look alike come from different tables or passages of the source. Blank lines part the entries; values can stand above or below the compound they belong to.

Target: T1, MCR-1 (Homo sapiens, UniProt Q01726)
T1 construct: expressed in transfected cells; host or cells: HEK 293
Test: Melanocortin receptor binding assay, competition with 125I-HP 467, HEK 293 cells expressing hMCR-1
Settings: for % Disp. of 125I-HP 467 (first of duplicate) / % Disp. of 125I-HP 467 (second of duplicate): 10 μM isoquinoline compound; for % Disp. of 125I-HP 467 (first of duplicate): HEK 293 cells expressing MCR-1, duplicate 1; for % Disp. of 125I-HP 467 (second of duplicate): HEK 293 cells expressing MCR-1, duplicate 2; for % Disp. MC-1 10 μM: displacement of 125I-HP 467 at 10 μM isoquinoline compound; for IC50: read-out: MC-1 IC50
How it was run: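 Test compounds compete on intact HEK 293 cells carrying hMCR-1 (2×10^4 per tube) or hMCR-4 (4×10^3 per tube), suspended in PBS, 10% calf serum, 1 mM CaCl2.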

[1] = inhibition of binding of 125I-HP 467, HEK 293 cells expressing MCR-1
[2] = competition with 125I-HP 467, HEK 293 cells expressing MCR-1

T1 sequence (Q01726 whole entry): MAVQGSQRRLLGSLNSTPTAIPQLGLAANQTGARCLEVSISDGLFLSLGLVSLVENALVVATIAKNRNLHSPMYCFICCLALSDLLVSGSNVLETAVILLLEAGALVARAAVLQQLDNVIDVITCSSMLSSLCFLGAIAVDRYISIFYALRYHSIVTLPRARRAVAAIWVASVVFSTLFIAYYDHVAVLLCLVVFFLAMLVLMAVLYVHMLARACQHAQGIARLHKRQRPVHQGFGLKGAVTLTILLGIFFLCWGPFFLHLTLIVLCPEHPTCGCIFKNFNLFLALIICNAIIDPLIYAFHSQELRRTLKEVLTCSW

% Disp. of 125I-HP 467 (first of duplicate): 44.7% | % Disp. of 125I-HP 467 (second of duplicate): 35.7%
Structure (SMILES): CNC(CN)CCCCN1Cc2ccccc2C(CNC2CCCCC2)C1c1ccccc1CN (centres unmarked) [TRG 2405-195]

% Disp. MC-1 10 μM (first of duplicate): 48.5% | % Disp. MC-1 10 μM (second of duplicate): 45.1%
Structure (SMILES): CNC(CN)CN1Cc2ccccc2C(CNC2CCCCC2)C1c1cnc2ccccc2c1 (centres unmarked) [TRG 2405-142]

% Disp. MC-1 10 μM (first of duplicate): 37.3% | % Disp. MC-1 10 μM (second of duplicate): 34.6%
Structure (SMILES): CNC(CN)CN1Cc2ccccc2C(CNC2CCCCC2)C1c1ccnc2ccccc12 (centres unmarked) [TRG 2405-165]

% Disp. MC-1 10 μM (first of duplicate): 51% | % Disp. MC-1 10 μM (second of duplicate): 53.5%
Structure (SMILES): CNC(CN)CN1Cc2ccccc2C(CNC2CCCCC2)C1c1ccc(C)cc1 (centres unmarked) [TRG 2405-159]

IC50 [1]: 150 nM
Structure (SMILES): CCNc1ccc(C2C(CNC3CCCCC3)c3ccccc3CN2CCCC(CN)NCc2ccc(OC)cc2)cc1 (centres unmarked) [TRG 2411-171]

% Disp. of 125I-HP 467 (first of duplicate): 69.9% | % Disp. of 125I-HP 467 (second of duplicate): 69%
Structure (SMILES): CNC(CN)CCCCN1Cc2ccccc2C(CNC2CCCCC2)C1c1cc(OC)cc(OC)c1 (centres unmarked) [TRG 2405-211]

IC50 [1]: 470 nM
Structure (SMILES): CCCCCNc1ccc(C2C(CNCCc3ccccc3)c3ccccc3CN2CCCCC(CN)NCCc2ccccc2)cc1 (centres unmarked) [TRG 2412-2]

IC50 [1]: 490 nM
Structure (SMILES): CCOc1ccc(C2C(CNCCc3ccccc3)c3ccccc3CN2CCCCC(CN)NCCc2ccccc2)cc1 (centres unmarked) [TRG 2412-5]

% Disp. MC-1 10 μM (first of duplicate): 19.6% | % Disp. MC-1 10 μM (second of duplicate): 19.8%
Structure (SMILES): NCCN1Cc2ccccc2C(CNC2CCCCC2)C1c1cccc(F)c1 (centres unmarked) [TRG 2405-41]

The next lines start with the compound.

Structure (SMILES): CN(C)c1ccc(C2C(CNC3CCCCC3)c3ccccc3CN2CCN)cc1 (centres unmarked) [TRG 2405-55]
% Disp. MC-1 10 μM (first of duplicate): 32.6% | % Disp. MC-1 10 μM (second of duplicate): 38.1%

Structure (SMILES): NCCN1Cc2ccccc2C(CNC2CCCCC2)C1c1ccc(F)cc1 (centres unmarked) [TRG 2405-65]
% Disp. MC-1 10 μM (first of duplicate): 49.6% | % Disp. MC-1 10 μM (second of duplicate): 33.9%

Structure (SMILES): CCCCNc1ccc(C2C(CNCCc3ccccc3)c3ccccc3CN2CCCC(CN)NCCN)cc1 (centres unmarked) [TRG 2411-201]
IC50 [1]: 300 nM

Structure (SMILES): CNC(CN)CCCCN1Cc2ccccc2C(CNC2CCCCC2)C1c1ccc(F)cc1 (centres unmarked) [TRG 2405-245]
% Disp. of 125I-HP 467 (first of duplicate): 56.6% | % Disp. of 125I-HP 467 (second of duplicate): 56.8%

Structure (SMILES): CCCCNc1ccc(C2C(CN)c3ccccc3CN2CCCCC(CN)NCCc2ccc(OC)cc2)cc1 (centres unmarked) [TRG 2411-106]
IC50 [2]: 370 nM

Structure (SMILES): CCCCNc1ccc(C2C(CNCCc3ccccc3)c3ccccc3CN2CCCC(CN)NCc2ccc(OC)cc2)cc1 (centres unmarked) [TRG 2411-198]
IC50 [1]: 120 nM

Structure (SMILES): CCCCNc1ccc(C2C(CNC3CCCCC3)c3ccccc3CN2CCCC(CN)NCCC2CCCCC2)cc1 (centres unmarked) [TRG 2411-214]
IC50 [1]: 80 nM

Structure (SMILES): CNC(CNC(CN)CCCN1Cc2ccccc2C(CN)C1c1ccc(-c2ccccc2)cc1)Cc1ccccc1 (centres unmarked) [TRG 2411-144]
IC50 [2]: 1220 nM

Structure (SMILES): CNC(CN)CCCCN1Cc2ccccc2C(CNC2CCCCC2)C1c1ncc[nH]1 (centres unmarked) [TRG 2405-198]
% Disp. of 125I-HP 467 (first of duplicate): 65.4% | % Disp. of 125I-HP 467 (second of duplicate): 26.4%

Structure (SMILES): CNC(CN)CCCN1Cc2ccccc2C(CNCCc2ccccc2)C1c1ccc(-c2ccccc2)cc1 (centres unmarked) [TRG 2411-114]
IC50 [2]: 760 nM

Structure (SMILES): CNC(CN)CN1Cc2ccccc2C(CNC2CCCCC2)C1c1cccnc1 (centres unmarked) [TRG 2405-141]
% Disp. MC-1 10 μM (first of duplicate): 15% | % Disp. MC-1 10 μM (second of duplicate): 16.2%

Structure (SMILES): CCNc1ccc(C2C(CN)c3ccccc3CN2CCCCC(N)CN)cc1 (centres unmarked) [TRG 2411-59]
IC50 [2]: 370 nM

Structure (SMILES): CNC(CN)CN1Cc2ccccc2C(CNC2CCCCC2)C1c1cccc([N+](=O)[O-])c1 (centres unmarked) [TRG 2405-139]
% Disp. MC-1 10 μM (first of duplicate): 40.3% | % Disp. MC-1 10 μM (second of duplicate): 45.5%

Structure (SMILES): CNC(CN)CN1Cc2ccccc2C(CNC2CCCCC2)C1c1c(F)cccc1F (centres unmarked) [TRG 2405-101]
% Disp. MC-1 10 μM (first of duplicate): 34% | % Disp. MC-1 10 μM (second of duplicate): 45.3%

Structure (SMILES): CNC(CN)CCCCN1Cc2ccccc2C(CNC2CCCCC2)C1c1cnc2ccccc2c1 (centres unmarked) [TRG 2405-232]
% Disp. of 125I-HP 467 (first of duplicate): 36.1% | % Disp. of 125I-HP 467 (second of duplicate): 34.2%

Structure (SMILES): CCNc1ccc(C2C(CN)c3ccccc3CN2CCCCC(CN)NCCC2CCCCC2)cc1 (centres unmarked) [TRG 2411-70]
IC50 [2]: 160 nM

Structure (SMILES): CCCCNc1ccc(C2C(CNCCc3ccccc3)c3ccccc3CN2CCCCC(CN)NC)cc1 (centres unmarked) [TRG 2411-73]
IC50 [2]: 190 nM

Structure (SMILES): CNC(C)CNC(CN)CCCCN1Cc2ccccc2C(CNC2CCCCC2)C1c1ccc(-c2ccccc2)cc1 (mixture of isomers) [TRG 2411-15]
IC50 [2]: 730 nM
